Laboratory results from the supplement of paper PMC11451515.

Experiments:
Settings in all cases: 48 h
NOMO1 [1] = assay: cell viability relative to DMSO control; higher = less cytotoxic
Method in brief: (§1)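 Before seeding, each leukemia line was adapted for at least four passages in each medium. NOMO1 or SEM cells (500 cells/well) and P12-Ichikawa cells (1000 cells/well) went into 1536-well plates at 5 μl, then received library compounds in DMSO by pin dosing across 11 threefold concentrations, 47 μM to 0.79 nM. Readout was CellTiter-Glo One luminescence after 48 h at 37°C, and viability is given as a per-plate percentage of DMSO wells, with cell-free wells as background.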

P12-Ichikawa [2] = assay: as above
Method in brief: as §1

SEM cells [3] = assay: as above
Method in brief: as §1

NOMO1 [4] = assay: AUC of viability dose-response curve (% viability x log10 dose units); higher = less sensitive
Method in brief: (§2)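 Leukemia cells adapted to each medium were seeded in 1536-well plates (500 or 1000 cells/well). They were dosed with library compounds in DMSO at 11 threefold doses, 47 μM to 0.79 nM, for 48 h at 37°C. CellTiter-Glo One luminescence was normalised per plate to DMSO and cell-free wells. Area under the curve was integrated by trapezoidal rule over log10 doses on a four-parameter log-logistic fit; curves exceeding full viability were scaled and curves failing quality control removed.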

P12-Ichikawa [5] = assay: as above
Method in brief: as §2

SEM cells [6] = assay: as above
Method in brief: as §2

C[C@](O)(COc1ccc(C#N)cc1)C(=O)Nc1ccc(C#N)c(C(F)(F)F)c1
cell viability [%]
Settings | NOMO1 [1] | P12-Ichikawa [2] | SEM cells [3]
HPLM + 10% dialyzed FBS, 0.000781 µM | 83.2 | 85.2 | 70.4
HPLM + 10% dialyzed FBS, 0.00234 µM | 81.5 | 81.8 | 77
HPLM + 10% dialyzed FBS, 0.00702 µM | 81.2 | 93 | 90.7
HPLM + 10% dialyzed FBS, 0.0211 µM | 95.6 | 94.8 | 84.9
HPLM + 10% dialyzed FBS, 0.0632 µM | 90.1 | 99.2 | 91.3
HPLM + 10% dialyzed FBS, 0.19 µM | 99.1 | 93.2 | 95.5
HPLM + 10% dialyzed FBS, 0.569 µM | 90.4 | 102 | 87
HPLM + 10% dialyzed FBS, 1.71 µM | 96 | 93.9 | 84.4
HPLM + 10% dialyzed FBS, 5.12 µM | 88.6 | 89.7 | 90.5
HPLM + 10% dialyzed FBS, 15.4 µM | 97 | 94.6 | 21.9
HPLM + 10% dialyzed FBS, 46.1 µM | 71.2 | 95.3 | 89.6
RPMI 5 mM glucose + 10% FBS, 0.000781 µM | 72.8 | 77.6 | 84.9
RPMI 5 mM glucose + 10% FBS, 0.00234 µM | 93.8 | 84.4 | 70.4
RPMI 5 mM glucose + 10% FBS, 0.00702 µM | 94.4 | 84.3 | 99.6
RPMI 5 mM glucose + 10% FBS, 0.0211 µM | 85.4 | 94.1 | 104
RPMI 5 mM glucose + 10% FBS, 0.0632 µM | 96.2 | 83.8 | 90.5
RPMI 5 mM glucose + 10% FBS, 0.19 µM | 95.3 | 92.2 | 93
RPMI 5 mM glucose + 10% FBS, 0.569 µM | 103 | 89 | 102
RPMI 5 mM glucose + 10% FBS, 1.71 µM | 96.2 | 86.7 | 87.3
RPMI 5 mM glucose + 10% FBS, 5.12 µM | 88.8 | 83.9 | 103
RPMI 5 mM glucose + 10% FBS, 15.4 µM | 92.8 | 91 | 14.7
RPMI 5 mM glucose + 10% FBS, 46.1 µM | 75.9 | 80.5 | 39.5
RPMI 5 mM glucose + 10% dialyzed FBS, 0.000781 µM | 75.5 | 80.9 | 83
RPMI 5 mM glucose + 10% dialyzed FBS, 0.00234 µM | 88.7 | 82.6 | 81.6
RPMI 5 mM glucose + 10% dialyzed FBS, 0.00702 µM | 86.8 | 78.6 | 91.9
RPMI 5 mM glucose + 10% dialyzed FBS, 0.0211 µM | 98.3 | 81.6 | 91.5
RPMI 5 mM glucose + 10% dialyzed FBS, 0.0632 µM | 92.5 | 83.6 | 95.6
RPMI 5 mM glucose + 10% dialyzed FBS, 0.19 µM | 97.2 | 76.1 | 107
RPMI 5 mM glucose + 10% dialyzed FBS, 0.569 µM | 95.2 | 82.4 | 97.6
RPMI 5 mM glucose + 10% dialyzed FBS, 1.71 µM | 102 | 80.7 | 93.9
RPMI 5 mM glucose + 10% dialyzed FBS, 5.12 µM | 85.2 | 77.5 | 91
RPMI 5 mM glucose + 10% dialyzed FBS, 15.4 µM | 92.4 | 82.1 | 20.1
RPMI 5 mM glucose + 10% dialyzed FBS, 46.1 µM | 78.8 | 68.8 | 49.7

AUC of viability dose-response curve
Settings | NOMO1 [4] | P12-Ichikawa [5] | SEM cells [6]
HPLM + 10% dialyzed FBS | 422 | 445 | 388
RPMI 5 mM glucose + 10% FBS | 435 | 413 | 396
RPMI 5 mM glucose + 10% dialyzed FBS | 433 | 382 | 400
